Assay results as given in patent US20070027150A1 (priority 2005, published 2007).

Target: His-tagged N-terminal ATP binding domain (amino acid residues 9-236) of HSP90α (Homo sapiens, UniProt P07900)
Assay: HSP90 inhibitor binding potency: TRF competition binding assay
Settings: Table I; read-out: Hsp90 IC50 Range
Summary of the method: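 Competition against biotinylated radicicol for binding to the His-tagged 9-236 ATP domain of HSP90α: 2 h, room temperature, HEPES/MgCl2/KCl/BSA buffer. Streptavidin capture, then europium-labeled anti-His antibody and enhancement solution; europium counts give IC50.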

Row | SMILES | IC50 [nM]
1 | Cc1nc(N)nc2c1C(=O)CC(c1ccccc1-c1ccc[nH]c1=O)C2 (stereo not shown) [Compound 169, 2-amino-4-methyl-7-[2-(2-oxo-1,2-dihydropyridin-3-yl)phenyl]-7,8-dihydroquinazolin-5(6H)-one] | < 1000
2 | Cc1nc(N)nc2c1C(=O)CC(c1cccc(C(N)=O)c1)C2 (stereo not shown) [Compound 166, 3-(2-amino-4-methyl-5-oxo-5,6,7,8-tetrahydroquinazolin-7-yl)benzamide] | > 10000
3 | Cc1cccc(Oc2ccccc2C2CC(=O)c3c(C)nc(N)nc3C2)c1 (stereo not shown) [Compound 135, 2-amino-4-methyl-7-[2-(3-methylphenoxy)phenyl]-7,8-dihydroquinazolin-5(6H)-one] | < 1000
4 | Cc1nc(N)nc2c1C(=O)CC(c1nccn1Cc1ccccc1)C2 (stereo not shown) [Compound 9, 2-amino-7-(1-benzyl-1H-imidazol-2-yl)-4-methyl-7,8-dihydro-6H-quinazolin-5-one] | < 1000
5 | COc1cccc(Cl)c1C1CC(=O)c2c(C)nc(N)nc2C1 (stereo not shown) [Compound 5, 2-amino-7-(2-chloro-6-methoxy-phenyl)-4-methyl-7,8-dihydro-6H-quinazolin-5-one] | 1000 to 10000
6 | COc1cccc(C2CCCCC2)c1C1CC(=O)c2c(C)nc(N)nc2C1 (stereo not shown) [Compound 20, 2-amino-7-(2-cyclohexyl-6-methoxyphenyl)-4-methyl-7,8-dihydroquinazolin-5(6H)-one] | > 10000
7 | Cc1nc(N)nc2c1C(=O)CC(c1ccccc1-c1cccc3[nH]ccc13)C2 (stereo not shown) [Compound 128, 2-amino-7-[2-(1H-indol-4-yl)phenyl]-4-methyl-7,8-dihydroquinazolin-5(6H)-one] | < 1000
8 | Cc1nc(N)nc2c1C(=O)CC(c1ccc(F)cc1C1CCCCC1)C2 (stereo not shown) [Compound 172, 2-amino-7-(2-cyclohexyl-4-fluorophenyl)-4-methyl-7,8-dihydroquinazolin-5(6H)-one] | 1000 to 10000
9 | Cc1nc(N)nc2c1C(=O)CC(c1cccnc1)C2 (stereo not shown) [Compound 160, 2-amino-4-methyl-7-pyridin-3-yl-7,8-dihydroquinazolin-5(6H)-one] | > 10000
10 | Cc1nc(N)nc2c1C(=O)CC(c1ccccc1Oc1ccccn1)C2 (stereo not shown) [Compound 141, 2-amino-4-methyl-7-[2-(pyridin-2-yloxy)phenyl]-7,8-dihydroquinazolin-5(6H)-one] | < 1000

The remaining lines, values ahead:

Row | IC50 [nM] | SMILES
11 | < 1000 | Cc1nc(N)nc2c1C(=O)CC(c1cnccc1-c1cccnc1F)C2 (stereo not shown) [Compound 61, 2-amino-7-(2-fluoro-[3,4′]bipyridinyl-3′-yl)-4-methyl-7,8-dihydro-6H-quinazolin-5-one]
12 | > 10000 | Cc1nc(N)nc2c1C(=O)CC(c1cccc(-c3cccnc3)c1)C2 (stereo not shown) [Compound 29, 2-amino-4-methyl-7-(3-pyridin-3-ylphenyl)-7,8-dihydroquinazolin-5(6H)-one]
13 | > 10000 | Cc1nc(N)nc2c1C(=O)CC(c1ccccc1-c1cccc(N(C)C)c1)C2 (stereo not shown) [Compound 93, 2-amino-7-[3′-(dimethylamino)-1,1′-biphenyl-2-yl]-4-methyl-7,8-dihydroquinazolin-5(6H)-one]
14 | > 10000 | Cc1cccc(-c2ccccc2C2CC(=O)c3c(C)nc(N)nc3C2)n1 (stereo not shown) [Compound 119, 2-amino-4-methyl-7-[2-(6-methylpyridin-2-yl)phenyl]-7,8-dihydroquinazolin-5(6H)-one]
15 | 1000 to 10000 | Cc1cccc(-c2ccccc2C2CC(=O)c3c(C)nc(N)nc3C2)c1 (stereo not shown) [Compound 50, 2-amino-4-methyl-7-(3′-methyl-1,1′-biphenyl-2-yl)-7,8-dihydroquinazolin-5(6H)-one]
16 | 1000 to 10000 | COc1cccc(-c2ccccc2C2CC(=O)c3c(C)nc(N)nc3C2)c1 (stereo not shown) [Compound 69, 2-amino-7-(3′-methoxy-1,1′-biphenyl-2-yl)-4-methyl-7,8-dihydroquinazolin-5(6H)-one]
17 | < 1000 | Cc1nc(N)nc2c1C(=O)CC(c1ccccc1-c1cnccc1Cl)C2 (stereo not shown) [Compound 81, 2-amino-7-[2-(4-chloropyridin-3-yl)phenyl]-4-methyl-7,8-dihydroquinazolin-5(6H)-one]

Same assay, conditions: Table II; read-out: Hsp90 IC50 Range

Row | SMILES | IC50 [nM]
18 | COc1ccc(F)c(-c2scnc2C2CC(=O)c3c(C)nc(N)nc3C2)c1 (stereo not shown) [Compound 289, 2-amino-7-[5-(2-fluoro-5-methoxy-phenyl)-thiazol-4-yl]-4-methyl-7,8-dihydro-6H-quinazolin-5-one] | 1000 to 10000
19 | COc1ccc(F)c(-n2ccnc2C2CC(=O)c3c(C)nc(N)nc3C2)c1 (stereo not shown) [Compound 196, 2-amino-7-[1-(2-fluoro-5-methoxy-phenyl)-1H-imidazol-2-yl]-4-methyl-7,8-dihydro-6H-quinazolin-5-one] | 1000 to 10000
20 | CCc1c[nH]nc1-n1ccnc1C1CC(=O)c2c(C)nc(N)nc2C1 (stereo not shown) [Compound 200, 2-amino-7-[1-(4-ethyl-1H-pyrazol-3-yl)-1H-imidazol-2-yl]-4-methyl-7,8-dihydro-6H-quinazolin-5-one] | < 1000
21 | COc1ccc(-c2cccc(OC)n2)c(C2CC(=O)c3c(C)nc(N)nc3C2)c1 (stereo not shown) [Compound 252, 2-amino-7-[5-methoxy-2-(6-methoxy-pyridin-2-yl)-phenyl]-4-methyl-7,8-dihydro-6H-quinazolin-5-one] | < 1000
22 | Nc1nc(CCc2ccccc2)c2c(n1)CC(c1ccccc1)CC2=O (stereo not shown) [Compound 305, 2-amino-4-phenethyl-7-phenyl-7,8-dihydro-6H-quinazolin-5-one] | > 10000
23 | Nc1nc(Cc2cccc([N+](=O)[O-])c2)c2c(n1)CC(c1ccccc1)CC2=O (stereo not shown) [Compound 308, 2-amino-4-(3-nitro-benzyl)-7-phenyl-7,8-dihydro-6H-quinazolin-5-one] | > 10000
24 | COc1cccc(-n2ccnc2C2CC(=O)c3c(C)nc(N)nc3C2)c1 (stereo not shown) [Compound 190, 2-amino-7-[1-(3-methoxy-phenyl)-1H-imidazol-2-yl]-4-methyl-7,8-dihydro-6H-quinazolin-5-one] | 1000 to 10000
25 | Cc1nc(N)nc2c1C(=O)CC(c1ccc(F)cc1OCC1CC1)C2 (stereo not shown) [Compound 179, 2-amino-7-(2-cyclopropylmethoxy-4-fluoro-phenyl)-4-methyl-7,8-dihydro-6H-quinazolin-5-one] | < 1000
26 | CCOc1cccc(-n2ccnc2C2CC(=O)c3c(C)nc(N)nc3C2)c1 (stereo not shown) [Compound 191, 2-amino-7-[1-(3-ethoxy-phenyl)-1H-imidazol-2-yl]-4-methyl-7,8-dihydro-6H-quinazolin-5-one] | > 10000
27 | Cc1nc(N)nc2c1C(=O)CC(c1ccc(F)cc1OCC(C)C)C2 (stereo not shown) [Compound 266, 2-amino-7-(4-fluoro-2-isobutoxy-phenyl)-4-methyl-7,8-dihydro-6H-quinazolin-5-one] | < 1000
28 | COc1ccccc1Oc1cc(F)ccc1C1CC(=O)c2c(C)nc(N)nc2C1 (stereo not shown) [Compound 290, 2-amino-7-[4-fluoro-2-(2-methoxy-phenoxy)-phenyl]-4-methyl-7,8-dihydro-6H-quinazolin-5-one] | 1000 to 10000
29 | COc1cccc(-c2cc(F)c(C3CC(=O)c4c(C)nc(N)nc4C3)c(F)c2)n1 (stereo not shown) [Compound 256, 2-amino-7-[2,6-difluoro-4-(6-methoxy-pyridin-2-yl)-phenyl]-4-methyl-7,8-dihydro-6H-quinazolin-5-one] | > 10000
30 | Nc1nc(O)c2c(n1)CC(c1ccccc1)CC2=O (stereo not shown) [Compound 311, 2-amino-4-hydroxy-7-phenyl-7,8-dihydro-6H-quinazolin-5-one] | > 10000
31 | COc1cccc(-n2cc(C(F)(F)F)nc2C2CC(=O)c3c(C)nc(N)nc3C2)n1 (stereo not shown) [Compound 205, 2-amino-7-[1-(6-methoxy-pyridin-2-yl)-4-trifluoromethyl-1H-imidazol-2-yl]-4-methyl-7,8-dihydro-6H-quinazolin-5-one] | < 1000
32 | Cc1nc(N)nc2c1C(=O)CC(c1ccc(F)cc1OCC1CCCC1)C2 (stereo not shown) [Compound 263, 2-amino-7-(2-cyclopentylmethoxy-4-fluoro-phenyl)-4-methyl-7,8-dihydro-6H-quinazolin-5-one] | < 1000

Now from value to compound:

Row | IC50 [nM] | SMILES
33 | < 1000 | Cc1nc(N)nc2c1C(=O)CC(c1ccc(F)cc1-c1cccc(C(F)(F)F)n1)C2 (stereo not shown) [Compound 279, 2-amino-7-[4-fluoro-2-(6-trifluoromethyl-pyridin-2-yl)-phenyl]-4-methyl-7,8-dihydro-6H-quinazolin-5-one]
34 | < 1000 | Nc1ncc2c(n1)CC(c1ccc(F)cc1-c1cccnc1F)CC2=O (stereo not shown) [Compound 277, 2-amino-7-[4-fluoro-2-(2-fluoro-pyridin-3-yl)-phenyl]-7,8-dihydro-6H-quinazolin-5-one]
35 | < 1000 | COc1nc(-c2cc(F)ccc2[C@@H]2CC(=O)c3c(C)nc(N)nc3C2)ncc1Cl [Compound 300, (S)-2-amino-7-[2-(5-chloro-4-methoxy-pyrimidin-2-yl)-4-fluoro-phenyl]-4-methyl-7,8-dihydro-6H-quinazolin-5-one]
36 | < 1000 | Cc1nc(N)nc2c1C(=O)CC(c1cnccc1-c1cccc(Br)c1)C2 (stereo not shown) [Compound 187, 2-amino-7-[4-(3-bromo-phenyl)-pyridin-3-yl]-4-methyl-7,8-dihydro-6H-quinazolin-5-one]
37 | 1000 to 10000 | CC(=O)c1ccc(-c2cc(F)ccc2[C@@H]2CC(=O)c3c(C)nc(N)nc3C2)s1 [Compound 326, (S)-7-[2-(5-Acetyl-thiophen-2-yl)-4-fluoro-phenyl]-2-amino-4-methyl-7,8-dihydro-6H-quinazolin-5-one]
38 | 1000 to 10000 | CCc1nc(N)nc2c1C(=O)CC(c1ccc(F)cc1-c1cccnc1OC)C2 (stereo not shown) [Compound 317, 2-amino-4-ethyl-7-[4-fluoro-2-(2-methoxy-pyridin-3-yl)-phenyl]-7,8-dihydro-6H-quinazolin-5-one]
39 | > 10000 | Cc1nc(N)nc2c1C(=O)CC(c1cc(F)ccc1-c1cncnc1)C2 (stereo not shown) [Compound 284, 2-amino-7-(5-fluoro-2-pyrimidin-5-yl-phenyl)-4-methyl-7,8-dihydro-6H-quinazolin-5-one]
40 | 1000 to 10000 | Cc1nc(N)nc2c1C(=O)CC(c1ccc(F)cc1OCc1ccccc1)C2 (stereo not shown) [Compound 265, 2-amino-7-(2-benzyloxy-4-fluoro-phenyl)-4-methyl-7,8-dihydro-6H-quinazolin-5-one]
